In patent US8680132B2, “Spiro-oxindole MDM2 antagonists” (priority 2010, dated 2014):
“And” between values parts separate entries of the source, which are not always exact repeats. Equal entries are not always repeated. Structures can show the parent of a compound that is named as a salt. Where two headings read alike, the source gives them in different places.

Key:
[1] = molecular target: recombinant human His-tagged MDM2 protein (residues 1-118) (Homo sapiens (Human), UniProt Q00987); test: Fluorescence-polarization MDM2 binding assay (Example 2); details: Table 2A; no unit in the cell (μM unless otherwise indicated)
HCT-116 (p53—/—) = test: Cell growth assay (WST-8); assay type: cell-based; details: Homo sapiens, HCT-116, 96 h, read-out: IC50 HCT-116 (p53—/—)
SJSA-1 (p53 wild-type) = test: Cell growth assay (WST-8); assay type: cell-based
PC-3 (deleted p53) = test: Cell growth assay (WST-8); assay type: cell-based
HCT-116 (p53 wild-type) = test: Cell growth assay (WST-8); assay type: cell-based, human
LNCAP (p53 wild-type) = test: Cell growth assay (WST-8); assay type: cell-based, human
[2] = system: prostate cancer cell line 22Rv1; test: Growth inhibition assay (Celltiter-Glo), 22Rv1; assay type: cell-based; details: Homo sapiens, read-out: IC50 growth inhibition
RS4; 11 (p53 wt) [3] = test: cells; details: Homo sapiens, RS4-11, 96 h, read-out: RS4, 11 (p53 wt) IC50 (μM)
CCF-STTG1 = test: Anti-proliferative ATP assay; assay type: cell-based; details: Homo sapiens, CNS, p53 WT/WT, MDM2 amplified
JAR = test: Anti-proliferative ATP assay; assay type: cell-based; details: placenta, p53 WT/WT, MDM2 amplified
EHEB = test: Anti-proliferative ATP assay; assay type: cell-based; details: CLL, p53 WT/WT
22RV1 = test: Anti-proliferative ATP assay; assay type: cell-based; details: Homo sapiens, prostate, p53 WT/MUT
H1299 = test: Anti-proliferative ATP assay; assay type: cell-based; details: Homo sapiens, NCI-H1299, lung, p53 —/—
LnCap = test: Anti-proliferative ATP assay; assay type: cell-based; details: Homo sapiens, prostate, p53 WT/WT
Ly10 = test: Anti-proliferative ATP assay; assay type: cell-based; details: ABC-DLBCL, p53 WT/WT
LY3 = test: Anti-proliferative ATP assay; assay type: cell-based; details: ABC-DLBCL, p53 WT/WT
MCF7 = test: Anti-proliferative ATP assay; assay type: cell-based; details: Homo sapiens, breast, p53 WT/WT
RKO = test: Anti-proliferative ATP assay; assay type: cell-based; details: Homo sapiens, colon, p53 WT/WT
HCT116 = test: Anti-proliferative ATP assay; assay type: cell-based; details: Homo sapiens, HCT-116, colon, p53 WT/WT
RS4; 11 (p53 wt) [4] = details: read-out: RS4, Four day treatment
Rec1 = test: Anti-proliferative ATP assay; assay type: cell-based; details: Homo sapiens, MCL, p53 WT/WT
U2OS = test: Anti-proliferative ATP assay; assay type: cell-based; details: Homo sapiens, bone, p53 WT/WT
Hs746T = test: Anti-proliferative ATP assay; assay type: cell-based; details: Homo sapiens, gastric, Met amplified
SR = test: Anti-proliferative ATP assay; assay type: cell-based; details: Homo sapiens, lymphoma, p53 WT/WT
Ku812 = test: Anti-proliferative ATP assay; assay type: cell-based; details: Homo sapiens, CML-BC, p53 WT/WT
MV4; 11 = test: Anti-proliferative ATP assay; assay type: cell-based; details: Homo sapiens, AML, p53 WT/WT, FLT3-ITD
Capan2 = test: Anti-proliferative ATP assay; assay type: cell-based; details: Homo sapiens, Capan-2, pancreas, p53 —/—
SNU-5 = test: Anti-proliferative ATP assay; assay type: cell-based; details: Homo sapiens, gastric, Met amplified
[5] = system: SJSA-1 (osteosarcoma) tumors; test: In vivo efficacy, SJSA-1 xenograft model; design: species or system mice; details: single 200 mg/kg dose (QD1 treatment) versus QD7 treatment; FIG. 22
Method: A cell sample was mixed 1:1 with Trypan Blue (GIBCO™, Invitrogen Corp.) and counted on a hemocytometer to determine the number of live/dead cells. Cells were washed once with 1×PBS (GIBCO™, Invitrogen Corp.) and resuspended in PBS. […] Cells were injected s.c. into the flank region of each mouse using a 27 gauge needle. The size of tumors growing in the mice was measured in two dimensions using calipers. Tumor volume (mm^3)=(A×B^2)/2 where A and B are the tumor length and width (in mm), respectively. During treatment, tumor volume and body weight was measured three times a week. After the treatment was stopped, tumor volume (FIGS. 17, 20, 22, and 23) and body weight (FIGS. 18 and 21) was measured at least once a week. Mice were kept for an additional 60 days for further observation of tumor growth and toxicity. […] Before treatment began, tumors were allowed to grow to 60-140 mm^3 in volume, at which point the blood vessel supplies to the tumor should have been established. […] The Control group received vehicle alone (10% PEG 400:3% Cremophor:87% PBS).

MKN45 = test: Anti-proliferative ATP assay; assay type: cell-based; details: Homo sapiens, MKN-45, gastric, p53 WT/WT, Met amplified
RS4; 11 = test: Anti-proliferative ATP assay; assay type: cell-based; details: Homo sapiens, ALL, p53 WT/WT
MOLM13 = test: Anti-proliferative ATP assay; assay type: cell-based; details: Homo sapiens, MOLM-13, AML, p53 WT/WT, FLT3-ITD
Method: The anti-proliferative IC50 was determined by ATP assay.

H929 = test: Anti-proliferative ATP assay; assay type: cell-based; details: Homo sapiens, NCI-H929, MM, p53 WT/WT
DoHH2 = test: Anti-proliferative ATP assay; assay type: cell-based; details: Homo sapiens, DOHH-2, GCB-DLBCL, p53 WT/WT, BCL2 overexpression
Ly7 = test: Anti-proliferative ATP assay; assay type: cell-based; details: GCB-DLBCL, p53 WT/MUT
SJSA1 = test: Anti-proliferative ATP assay; assay type: cell-based; details: Homo sapiens, SJSA-1, bone, p53 WT/WT, MDM2 amplified
Y79 = test: Anti-proliferative ATP assay; assay type: cell-based; details: Homo sapiens, retinoblastome, p53 WT/WT, Rb mutated
SNU-1 = test: Anti-proliferative ATP assay; assay type: cell-based; details: Homo sapiens, SNU1, gastric, p53 WT/WT, KRAS mut
[6] = Homo sapiens, SJSA-1, 96 h, read-out: IC50 SJSA-1 (p53 wild-type)
[7] = 96 h, read-out: IC50 PC-3 (deleted p53)
[8] = Homo sapiens, HCT-116, 96 h, read-out: IC50 HCT-116 (p53 wild-type)
[9] = Homo sapiens, LNCaP, 96 h, read-out: IC50 LNCAP (p53 wild-type)
[10] = Homo sapiens, SJSA-1, read-out: IC50 SJSA-1 (p53 wild-type)
[11] = Homo sapiens, HCT-116, read-out: IC50 HCT-116 (p53 wild-type)
[12] = Homo sapiens, LNCaP, read-out: IC50 LNCAP (p53 wild-type)

recombinant human His-tagged MDM2 protein (residues 1-118), sequence (Q00987 1-118): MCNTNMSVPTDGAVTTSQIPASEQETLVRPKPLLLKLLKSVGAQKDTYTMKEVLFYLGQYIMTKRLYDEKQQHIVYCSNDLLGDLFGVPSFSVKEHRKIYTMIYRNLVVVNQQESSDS

In the case of `CCN1[C@@H](CC(C)(C)C)[C@@]2(C(=O)Nc3cc(Cl)ccc32)[C@@H](c2cccc(Cl)c2F)[C@@H]1C(=O)N[C@H]1C[C@@](C)(O)C1` [C29701], the IC50 [1] is reported as less than 0.1 µM.

`CN1[C@@H](CC(C)(C)C)[C@@]2(C(=O)Nc3cc(Cl)ccc32)[C@@H](c2cccc(Cl)c2F)[C@@H]1C(=O)N[C@H]1C[C@@](C)(O)C1` [C30201] showed an IC50 [1] of less than 0.1 µM.

`CC(C)(C)C[C@H]1N[C@@H](C(=O)N[C@H]2C[C@@](C)(O)C2)[C@H](c2cccc(Cl)c2F)[C@@]12C(=O)Nc1cc(Cl)ccc12` [MI-519-64] showed an IC50 (HCT-116 (p53—/—)) of 13.7 µM, an IC50 (SJSA-1 (p53 wild-type); [6]) of 270 nM and an IC50 (PC-3 (deleted p53); [7]) of 6.1 µM. The IC50 (HCT-116 (p53 wild-type); [8]) was 180 nM and the IC50 (LNCAP (p53 wild-type); [9]) was 500 nM.

For `CC(C)(C)C[C@H]1N[C@@H](C(=O)N[C@H]2C[C@](C)(O)C2)[C@H](c2cccc(Cl)c2F)[C@@]12C(=O)Nc1cc(Cl)ccc12` [MI-519-65], the IC50 (SJSA-1 (p53 wild-type); [10]) was less than 3000 nM, the IC50 (HCT-116 (p53 wild-type); [11]) was less than 3000 nM and the IC50 (LNCAP (p53 wild-type); [12]) was less than 3000 nM.

`CC(C)(C)C[C@@H]1N[C@@H](C(=O)N[C@H]2C[C@@](C)(O)C2)[C@H](c2cccc(Cl)c2F)[C@]12C(=O)Nc1cc(Cl)ccc12` [MI-519-6401] gave an IC50 (HCT-116 (p53—/—)) of 12.2 µM, an IC50 ([2]; 22Rv1, 96 h) of 100 to 500 nM and an IC50 (SJSA-1 (p53 wild-type); [6]) of 400 nM. The IC50 (PC-3 (deleted p53); [7]) was 10.5 µM, the IC50 (HCT-116 (p53 wild-type); [8]) was 102 nM and the IC50 (RS4; 11 (p53 wt) [3]) was 0.13 ± 0.02 µM. The IC50 (LNCAP (p53 wild-type); [9]) was 330 nM.

With `CC(C)(C)C[C@H]1N[C@@H](C(=O)NC2CCC(O)CC2)[C@H](c2cccc(Cl)c2F)[C@@]12C(=O)Nc1cc(Cl)ccc12` (some centres unmarked) [MI-773] the IC50 (SJSA-1 (p53 wild-type); [10]) was 61 nM, the IC50 (PC-3 (deleted p53); read-out: IC50 PC-3 (deleted p53)) was 14.7 µM and the IC50 (HCT-116 (p53 wild-type); [11]) was 58 nM. For the same molecule, the IC50 (RS4; 11 (p53 wt) [3]; Four day treatment) was 0.13 µM and the IC50 (LNCAP (p53 wild-type); [12]) was 85 nM.

For `CC(C)(C)C[C@@H]1N[C@@H](C(=O)NC2CCC(O)CC2)[C@H](c2cccc(Cl)c2F)[C@]12C(=O)Nc1cc(Cl)ccc12` (some centres unmarked) [MI-77301 (TFA salt)], the IC50 (SJSA-1 (p53 wild-type); read-out: IC50 SJSA-1 (p53 wild-type), Four day treatment) was 83 nM and 75 nM, the IC50 (PC-3 (deleted p53); read-out: IC50 PC-3 (deleted p53), Four day treatment) was 13 ± 3 µM and the IC50 (HCT-116 (p53 wild-type); read-out: IC50 HCT-116 (p53 wild-type), Four day treatment) was 48 ± 14 nM. For the same molecule, the IC50 (RS4; 11 (p53 wt) [3]; Four day treatment) was 0.059 ± 0.025 µM and the IC50 (LNCAP (p53 wild-type); read-out: IC50 LNCAP (p53 wild-type), Four day treatment) was 86 ± 16 nM.

`CC(C)(C)C[C@@H]1N[C@@H](C(=O)NC2CCC(O)CC2)[C@H](c2cccc(Cl)c2F)[C@]12C(=O)Nc1cc(Cl)ccc12` (some centres unmarked) [MI-77301 (free amine)] gave an IC50 (CCF-STTG1) of 162 nM, an IC50 (JAR) of 169 nM and an IC50 (EHEB) of 70 nM. It also gave an IC50 (22RV1) of 399 nM, an IC50 (H1299) greater than 10000 nM and an IC50 (LnCap) of 50 nM. For the same molecule, the IC50 ([2]; 22Rv1, 96 h, 96-well format) was 100 to 500 nM, the IC50 (SJSA-1 (p53 wild-type); Homo sapiens, SJSA-1, 96 h, read-out: IC50 SJSA-1 (p53 wild-type), Four day treatment) was 58 ± 23 nM and the IC50 (Ly10) was 90 nM. It also gave an IC50 (LY3) of 280 nM, an IC50 (MCF7) of 201 nM and an IC50 (RKO) of 480 nM. The IC50 (HCT116) was 229 nM, the IC50 (RS4; 11 (p53 wt) [4]) was 102 nM and 81 nM and the IC50 (Rec1) was 738 nM. It also gave an IC50 (U2OS) greater than 10000 nM, an IC50 (Hs746T) of 10000 nM and an IC50 (PC-3 (deleted p53); 96 h, read-out: IC50 PC-3 (deleted p53), Four day treatment) of 8.45 ± 0.35 µM. For the same molecule, the IC50 (HCT-116 (p53 wild-type); Homo sapiens, HCT-116, 96 h, read-out: IC50 HCT-116 (p53 wild-type), Four day treatment) was 33 ± 10 nM, the IC50 (SR) was 14.9 nM and the IC50 (Ku812) was greater than 10000 nM. It also gave an IC50 (MV4; 11) of 45.4 nM, an IC50 (Capan2) greater than 10000 nM and an IC50 (SNU-5) greater than 10000 nM. For the same molecule, the “antitumor efficacy (tumor volume)” value [5] was “comparable efficacy to a continuous dosing regimen”, the IC50 (MKN45) was greater than 10000 nM and the IC50 (RS4; 11) was 28 nM. For the same molecule, the IC50 (LNCAP (p53 wild-type); Homo sapiens, LNCaP, 96 h, read-out: IC50 LNCAP (p53 wild-type), Four day treatment) was 54 ± 8 nM, the IC50 (MOLM13) was 14.7 nM and the IC50 (H929) was 114 nM. The IC50 (DoHH2) was 39.3 nM, the IC50 (Ly7) was greater than 10000 nM and the IC50 (SJSA1) was 145 nM. The IC50 (Y79) was 430 nM and the IC50 (SNU-1) was 77 nM.
